Test results from patent publication US11407725B2 (The Board of Trustees of the University of Illinois, priority 2018, dated 2022).
Values joined by “and” are separate entries in the source; they are usually repeats but may differ in a detail not shown here. Equal entries are not always repeated. “Also recorded” adds a separate entry of the source.

Key:
[1] = test system: ALDH1A2, ALDH2, ALDH3A1, ALDH4A1, and ALDH5A1; assay: ALDH isoform selectivity of red-AlDeSense: other isoforms; type: biochemical, human; settings: 2 μM dye
Protocol: (§1) Each ALDH isoform was added to a 50 mM triethanolamine solution (pH 7.4) containing 2.0 mM NAD^+ and 100 μM substrate at room temperature. Benzaldehyde was the substrate for ALDH3A1. Propanal was the substrate for all other isoforms. ALDH isoform activity was determined by monitoring the rate of NADH production through the increase in absorbance at 340 nm (ε=6220 M^−1cm^−1). For these assays, 1 unit is defined as the amount of enzyme that catalyzes the conversion of […] per minute. For every combination of dye and enzyme, 2 μM dye was preincubated with 2.0 mM NAD^+ in 50 mM triethanolamine solution (pH 7.4). The reaction was initiated by addition of 1 unit of ALDH. Dyes were excited at 590 nm, and fluorescence was measured continuously at 610 nm.

K562 cells = assay: Flow cytometry of K562 cells with red-AlDeSense; type: cell-based, human; settings: 1 μM dye
Protocol: For all cell lines, 200,000 cells in a single-cell suspension were transferred into 1.5 mL Eppendorf tubes. Cells were pelleted by centrifugation at 400 g for 5 minutes at room temperature. After removing the supernatant by aspiration, cells were resuspended in 300 μL premixed PBS supplemented with verapamil, probenecid, and novobiocin. […] Samples were immediately stored on ice. Cells were stained with red-AlDeSense or Ctrl-red-AlDeSense (100 μL of 4 μM dye solution; dyes were normalized by fluorescence spectroscopy). Samples were analyzed on a BD LSR II Flow Cytometry Analyzer using a 488 nm laser and a 550 LP and 610/30 filter set. Samples were analyzed every 5 minutes for 15 minutes, with the samples being placed back on ice between data collection. Data were analyzed on FCS Express 6.04.

ALDH1A1 [2] = biological target: T1, ALDH1A1 (Homo sapiens, UniProt P00352); assay: ALDH isoform selectivity of red probes: ALDH1A1; type: biochemical
T1 construct: made in house
T1 sequence (P00352 1-501): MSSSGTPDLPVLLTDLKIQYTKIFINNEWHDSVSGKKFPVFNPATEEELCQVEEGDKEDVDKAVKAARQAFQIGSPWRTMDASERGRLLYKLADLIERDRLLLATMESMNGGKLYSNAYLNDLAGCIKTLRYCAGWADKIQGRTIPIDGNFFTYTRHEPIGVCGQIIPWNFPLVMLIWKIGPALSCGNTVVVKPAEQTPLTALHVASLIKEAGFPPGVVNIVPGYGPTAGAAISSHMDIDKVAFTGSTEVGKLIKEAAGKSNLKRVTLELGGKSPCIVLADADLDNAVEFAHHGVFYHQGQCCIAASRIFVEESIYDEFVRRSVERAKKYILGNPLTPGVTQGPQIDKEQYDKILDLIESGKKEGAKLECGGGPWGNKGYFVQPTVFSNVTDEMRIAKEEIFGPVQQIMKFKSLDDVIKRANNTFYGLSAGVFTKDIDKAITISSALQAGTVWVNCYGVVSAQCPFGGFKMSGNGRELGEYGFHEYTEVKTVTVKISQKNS
Protocol: as §1

ALDH1A1 [3] = biological target: T1, ALDH1A1; assay: ALDH1A1 kinetics; type: biochemical
Protocol: Solutions were prepared of 2.0 mM NAD+ and 0.1-2.5 μM AlDeSense or red-AlDeSense in 50 mM triethanolamine solution (pH 7.4). For every concentration, 1 unit of enzyme (as defined and determined in ALDH Isoform Selectivity) was added. Fluorescence was monitored for 30 seconds to determine V0. AlDeSense was excited at 490 nm and monitored at 510 nm. Red-AlDeSense was excited at 590 nm and monitored at 610 nm. Each condition was performed in triplicate. Protein concentration was determined using the Pierce™ BCA Protein Assay Kit. Data was analyzed using Microsoft Excel.

B16F0 melanoma cells = assay: B16F0 melanoma confocal imaging (e-CSC vs non-CSC); type: cell-based, murine
Protocol: B16F0 Melanoma Confocal Imaging. B16F0 murine melanoma cells were cultured for 5 days on polyacrylamide hydrogels with or without spiral patterns as described previously (Drug Discov Today 2014, 19, 1953). The coverslips on which the hydrogels and cells were mounted were transferred to a glass-bottomed dish for confocal imaging, leaving the cells intact. Solutions of either 2 μM AlDeSense AM or 2 μM Ctrl-AlDeSense AM in PBS were added to the two types of cells. The cells were incubated at room temperature for 1 h and then immediately imaged. Confocal imaging was performed on a Zeiss LSM700 Confocal Microscope, utilizing the 488 nm laser line to excite AlDeSense AM and the 20×/0.8 objective. Three different coverslips of cells were imaged for each set of conditions and at least 6 μmages were taken for each coverslip. Using ImageJ, ROIs were drawn around areas covered with cells and mean fluorescence values were measured for each image.

Log D7.4 = type: physicochemical; settings: pH 7.4
[4] = test system: panel of the most common ALDH isoforms; assay: AlDeSense isoform selectivity assay; type: biochemical, human; settings: 20 units of each isoform, 1 μM AlDeSense
Protocol: The activity of each isoform of ALDH was confirmed by monitoring the production of NADH at 340 nm when incubated with the most commonly used substrate for that enzyme (propionaldehyde for ALDH1A1, ALDH1A2, ALDH1A3, ALDH2 and ALDH4A1; benzaldehyde for ALDH3A1, and succinic semialdehyde for ALDH5A1). Each isoform was diluted with 50 mM triethanolamine (TEA, pH 7.4) to a final concentration of 1 μM and placed in a 1 mL quartz cuvette. Directly before measurement, NAD^+ was added to final concentration of 2.5 mM and the preferred substrate was added to a final concentration of 1 mM. Absorbance spectra were taken from 300 to 500 nm every half minute for 15 minutes. Units of activity for each enzyme were calculated from the slope of absorbance increase at 340 nm over time, (1 unit=1 μmol substrate turned over/[…]/min).
Activation of AlDeSense was assessed using 20 units of each ALDH isoform. Activity was determined by activity measurements using each isoform's preferred substrate (1 unit=1 μmol substrate turned over/mol enzyme/min). Further details are in the supplementary information. […]
AlDeSense activation was determined using fluorescence. […] After vigorous mixing, the reaction was monitored at room temperature for 15 min. Fluorescence spectra were acquired according to following parameters: λex=498 nm, and emission range=505-580 nm. […]

ALDH1A1 [5] = biological target: T1, ALDH1A1; assay: Fluorescence turn-on of AlDeSense with recombinant ALDH1A1; type: biochemical; settings: fluorescent enhancement when treated with ALDH1A1; 1 μM probe
Protocol: Activation of AlDeSense was assessed using 20 units of each ALDH isoform. Activity was determined by activity measurements using each isoform's preferred substrate (1 unit=1 μmol substrate turned over/mol enzyme/min). Further details are in the supplementary information. All enzymatic reactions were performed in 50 mM triethanolamine buffer (pH 7.4, Thermo Fisher) with 2.5 mM NAD+(Alfa Aesar) and 5% v/v DMSO (Thermo Fisher) in a 1 mL quartz cuvette at room temperature.
AlDeSense activation was determined using fluorescence. Immediately before measurement, AlDeSense (1 μM) was added to a quartz cuvette. After vigorous mixing, the reaction was monitored at room temperature for 15 min. Fluorescence spectra were acquired according to following parameters: λex=498 nm, and emission range=505-580 nm. All scans were normalized to the signal from AlDeSense in 50 mM TEA and 2.5 mM NAD+(without enzyme). Endpoint measurements at 15 min were performed in triplicate and reported as the averages±standard deviation.

Structure (SMILES)	cross-reactivity with ALDH1A2, ALDH2, ALDH3A1, ALDH4A1, ALDH5A1 [1]	K562 cells with high ALDH1A1 activity (K562 cells)	turn-on response when treated with ALDH1A1 (ALDH1A1 [2])	Enzyme Activity 1A1 (ALDH1A1 [2]; Table 2)	Enzymatic Turn On (ALDH1A1 [2]; Table 2, ALDH1A1, 2 μM dye)	higher catalytic efficiency (kcat/Km) versus AlDeSense (ALDH1A1 [3])	brightness of e-CSCs versus e-CSCs treated with Ctrl-AlDeSense (B16F0 melanoma cells)	brightness of e-CSCs versus non-CSCs (B16F0 melanoma cells; both stained with AlDeSense)	logD (Log D7.4)	cross-reactivity against panel of ALDH isoforms [4]	Turn-on (fold) (ALDH1A1 [5])
Cc1cc(C=O)c(F)c(F)c1C1=C2C=CC(=O)C=C2[Si](C)(C)c2cc(O)ccc21	no cross-reactivity	39.0±8.3%	3.2 fold	High	3.2	2.3 fold					
Cc1cc(C=O)ccc1-c1c2cc(F)c(=O)cc-2oc2cc(O)c(F)cc12 [AlDeSense]							9.0 fold	11.3 fold	0.88	only ALDH1A1 led to probe activation; also recorded: did not observe cross-reactivity; also recorded: selective for only the ALDH1A1 isoform	20 fold and 20.0 fold
